Measured values taken from patent publication US9801851B2, “Methods and compositions for the treatment of BCR-ABL positive lymphoblastic leukemias” (ST. JUDE CHILDREN'S RESEARCH HOSPITAL, priority 2012, dated 2017).
Like-named read-outs stand apart in the source and are kept apart here.

Tests used:
[1] = In vivo toxicity studies of DHA by oral gavage; conditions: repeated single doses of 300 mg/kg, 5 days/week
Description: In toxicity studies, DHA was ranged up to 300 mg/kg as a single or split dose for 5 days/week over a six week time period. […] During therapeutic studies, animal weights were monitored daily to ensure no significant body weight reductions.

[2] = system: human Ph+ ALL SUPB15 cells; assay: Cell viability, MTS assay, 72 h; type: cell-based
Description: Drug delivery to cell suspensions was accomplished with a V & P Scientific (San Diego, Calif.) pin. For murine-human comparisons, human SUP-B15 Ph+ ALL cells (DSMZ cell culture collection, Germany) in McCoy's media containing 20% fetal calf serum and penicillin/streptomycin (Invitrogen, Carlsbad, Calif.), were plated at 12,500 cells in 25 μL per well in black clear-bottom 384-well microtiter plates. Drugs were transferred by pin-transfer. After 72 h incubation at 37° C., 20% (by volume) MTS assay reagent (CellTiter 96 Aqueous One Solution, Promega, Madison, Wis.) was added, microtiter plates were incubated for 75 min at 37° C., and read colorimetrically at 490 nm.

[3] = system: Arf−/− BCR-ABL^WT LICs; type: in vivo
[4] = system: Arf−/− BCR-ABL^WT LICs; assay: LIC growth inhibition, CellTiter-Glo (CTG) assay, 72 h; type: cell-based, murine; conditions: for effect of cytokine on dasatinib potency: 72-h dasatinib exposure in presence of increasing concentrations of cytokine
Description: Replication-defective mouse stem cell virus (MSCV) retroviral vectors co-expressing either the wild-type (WT) allele of human p185^BCR-ABL or mutant BCR-ABL alleles p185^T315I or p185^F317L, and either green fluorescent protein (GFP) or luciferase, were packaged into replication-incompetent ecotropic virions. Whole bone marrow cell suspensions from Arf^−/− young adult mice were infected to produce Arf^−/− p185+ pre-B cells. […] Prior to use in any assays, Arf^−/− p185^WT and Arf^−/− p185^T315I pre-B cells (BCR-ABL^WT leukemia initiating cells (LICs) and BCR-ABL^T315I LICs, respectively) were thawed and allowed to recover in BCM10 for 3 days.
The maximum dimethyl sulfoxide (DMSO) concentration tolerated by LICs in culture was determined to be 0.2% (by volume) and was maintained at ≦0.1% (by volume) in all subsequent work. […] Both cell types were plated at multiple cell dilutions (n=3 for each condition, time=0 h) in 6-well plates and serially followed daily for 5 days to evaluate absolute viable cell count, total viability, doubling times, and total population doublings, using the Beckman Coulter cell counter (trypan blue staining) and fluorescence-activated cell sorting (FACS) analysis in parallel. […] FACS cell-cycle analysis confirmed that a population doubling time less than 14 h was sufficient to maintain cells in exponential growth (>50% cells in S-phase).
After a 72 h drug challenge, LIC growth was measured by the 3 cellular readouts: CellTiter-Glo® (CTG) assay (ATP content), MTS (3-(4,5-dimethylthiazol-2-yl)-5-(3-carboxymethoxyphenyl)-2-(4-sulfophenyl)-2H-tetrazolium) assay (viability), and high-throughput flow cytometry (total viability and viable cell counts by DAPI exclusion). Measured assay readouts at various drug concentrations (x-axis) were normalized to DMSO-treated LICs and graphed (+/−sd) on y-axis.

## C[C@@H]1CCC2[C@@H](C)[C@@H](O)O[C@@H]3OC4(C)CC[C@@H]1[C@@]23OO4 (some centres unmarked) [DHA, dihydroartemisinin]
[1]
  toxicity findings: no significant weight loss, lethargy, seizures or deaths
[2]
  killing of human Ph+ ALL cell line: actively kill
[3]; 200 mg/kg
  efficacy alone in high-burden leukemia model: completely ineffective
[3]; 300 mg/kg
  efficacy alone in high-burden leukemia model: poorly effective
[3]; IL7+/+ host mice, low-burden 2×10^3 LICs, 100, 200, 300 mg/kg once daily 5 days/week from day 3
  survival benefit, monotherapy: dose-dependent survival benefit

## C[C@@H]1CC[C@H]2[C@@H](C)C(=O)O[C@@H]3O[C@@]4(C)CC[C@@H]1[C@]32OO4 [artemisinin]
[4]; BCR-ABL^WT and BCR-ABL^T315I LICs, 72 h, absence or presence of 1 ng/mL murine IL7
  anti-LIC potency: lower than that of artesunate or DHA

## C[C@H]1[C@H](OC(=O)CCC(=O)O)O[C@@H]2O[C@@]3(C)CC[C@H]4[C@H](C)CC[C@@H]1[C@@]24OO3 [artesunate]
[2]
  killing of human Ph+ ALL cell line: actively kill

## IL4: recombinant murine hematopoietic cytokine
[4]
  effect of cytokine on dasatinib potency: confer some resistance

## TGF-β
[4]
  effect of cytokine on dasatinib potency: enhance dasatinib activity

## TSLP: thymic stromal lymphopoietin, IL7-like cytokine
[4]
  effect of cytokine on dasatinib potency: confer some resistance

B1: IL7: recombinant murine cytokine, leukemia-microenvironment host factor (protein, UniProt P10168 26-154, looked up)
Interleukin-7: ECHIKDKEGKAYESVLMISIDELDKMTGTDSNCPNNEPNFFRKHVCDDTKEAAFLNRAARKLKQFLKMNISEEFNVHLLTVSQGTQTLVNCTSKEEKNVKEQKKNDACFLKRLLREIKTCWNKILKGSI
[4]
  effect of cytokine on dasatinib potency: strongest protection against dasatinib
